We go through one compound from patent US6136852A, “3,4-disubstituted phenylethanolaminotetralincarboxylic acid derivatives” (Kissei Pharmaceutical Co., Ltd., priority 1996, dated 2000).

The subject of one data set is female ICR mice. The data set is described as follows: Acute toxicity test. It counts as in vivo. The following applies: intravenous, 30 mg/kg in saline. The procedure:
To 3 female ICR mice of 4 weeks age was administered intravenously ethyl 2-[(2S)-2-[[(2RS)-2-hydroxy-2-(4-hydroxy-3-hydroxymethylphenyl)ethyl]amino]-1,2,3,4-tetrahydronaphthalen-7-yloxy]acetate dissolved in saline at dose of 30 mg/kg.

The subject of the next data set is β1 -adrenergic receptor. Kind of data set: Action of drugs on the atrial contractions of isolated rat atrium (β1-adrenergic receptor stimulating activity). The data set is classed as cell-based. The following applies: isolated SD male rat atrium, Magnus method. As to the method: Thus, the compounds of the present invention have markedly weak β1 -adrenergic receptor stimulating effect in comparison with the aforementioned β2 -adrenergic receptor stimulating effect.
Action of Drugs on the Atrial Contractions of Isolated Atrium
The atria of SD male rats (350 to 400 g in body weight) were isolated and the experiment was conducted according to the Magnus method. The sample with a tension of 1 g was exposed to Krebs-Henseleit solution maintained at 37° C. and gassed with a mixture of 95% of oxygen and 5% of carbon dioxide. The atrial contraction was induced isometrically via a pressure transducer and recorded on a rectigram. After addition of the drug, its efficacy was evaluated as drug concentration that increased 20 beats per minute of heart rate (i.e., EC20 value).

The next data set addresses T1, β2 -adrenergic receptor (Rattus norvegicus, UniProt P10608).
T1 construct: The uteri of pregnant SD rats (pregnancy day 21) were isolated; from tissue; host or cells: longitudinal uterine muscle strips of pregnant SD rats (day 21)
Kind of data set: Action of drugs on the spontaneous contractions of isolated pregnant rat myometrium (β2-adrenergic receptor stimulating activity). It counts as cell-based. The following applies: isolated pregnant SD rat uterus (pregnancy day 21), Magnus method; read-out: EC50 value (activity to relax 50% of the spontaneous contractions of rat myometrium). As to the method:
Thus, the compounds of the present invention have markedly potent β2 -adrenergic receptor stimulating effect and therefore are remarkably useful as β2 -adrenergic receptor stimulating agents.
Action of Drugs on the Spontaneous Contractions of Isolated Pregnant Rat Myometrium
The uteri of pregnant SD rats (pregnancy day 21) were isolated and longitudinal uterine muscle strips (about 15 mm in length and about 5 mm in width) free from the basal plate were prepared. The experiment was conducted according to the Magnus method. The sample with a tension of 1 g was exposed to Locke-Ringer solution maintained at 37° C. and gassed with a mixture of 95% of oxygen and 5% of carbon dioxide. The spontaneous contractions of the myometrium were induced isometrically via a pressure transducer and recorded on a rectigram. The drug efficacy was evaluated as 50% inhibitory drug concentration (i.e., EC50 value) by comparing the total degree of uterine contraction during 5 minutes before the addition of the drug with the total degree of uterine contraction during 5 minutes after the addition of the drug.

T1 sequence (P10608 whole entry): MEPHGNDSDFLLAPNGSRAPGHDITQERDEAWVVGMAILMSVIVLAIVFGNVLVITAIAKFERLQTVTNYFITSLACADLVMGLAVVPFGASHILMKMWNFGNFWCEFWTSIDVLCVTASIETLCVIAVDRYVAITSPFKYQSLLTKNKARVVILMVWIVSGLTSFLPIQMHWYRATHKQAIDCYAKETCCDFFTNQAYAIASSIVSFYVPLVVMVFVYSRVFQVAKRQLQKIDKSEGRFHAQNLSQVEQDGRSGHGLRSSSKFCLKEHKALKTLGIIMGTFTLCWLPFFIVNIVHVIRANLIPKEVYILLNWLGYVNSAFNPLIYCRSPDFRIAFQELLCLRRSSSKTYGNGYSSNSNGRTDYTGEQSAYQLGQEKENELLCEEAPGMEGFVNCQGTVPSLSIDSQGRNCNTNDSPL

`CCOC(=O)COc1ccc2c(c1)C[C@@H](NCC(O)c1ccc(O)c(CO)c1)CC2` (mixture of isomers) [Compound 4, Ethyl 2-[(2S)-2-[[(2RS)-2-hydroxy-2-(4-hydroxy-3-hydroxymethylphenyl)ethyl]amino]-1,2,3,4-tetrahydronaphthalen-7-yloxy]acetate]: the “death of animals during 24 hours after the administration” value in the data set with female ICR mice was “No death of animals was observed”. In the data set on β1 -adrenergic receptor, the “EC20 value (concentration that increases 20 beats per minute of rat heart rate)” value was 1.1×10^-6 mol concentration. Also, the EC50 at β2 -adrenergic receptor was found to be 1.1 nM.

As usually defined, the EC50 is the concentration at which the effect is half-maximal.
